In ChEMBL document CHEMBL1137872, “Potent and selective P2-P3 ketoamide inhibitors of cathepsin K with good pharmacokinetic properties via favorable P1', P1, and/or P3 substitutions” (Bioorg Med Chem Lett, 2004):
pIC50: −log10 of the molar value. Converted amounts (≈) assume the structure as drawn.

Assays:
[1] = target: Cathepsin B (Homo sapiens, UniProt P07858); assay: Inhibition of 10 uM Cbz-Phe-Arg-AMC binding to human cathepsin B in fluorescence assay
[2] = target: T1, Pro-cathepsin H (Homo sapiens, UniProt P09668); assay: Inhibition of 50 uM L-Arg-beta-naphthalamide binding to human cathepsin H in fluorescence assay
T1 sequence (P09668 whole entry): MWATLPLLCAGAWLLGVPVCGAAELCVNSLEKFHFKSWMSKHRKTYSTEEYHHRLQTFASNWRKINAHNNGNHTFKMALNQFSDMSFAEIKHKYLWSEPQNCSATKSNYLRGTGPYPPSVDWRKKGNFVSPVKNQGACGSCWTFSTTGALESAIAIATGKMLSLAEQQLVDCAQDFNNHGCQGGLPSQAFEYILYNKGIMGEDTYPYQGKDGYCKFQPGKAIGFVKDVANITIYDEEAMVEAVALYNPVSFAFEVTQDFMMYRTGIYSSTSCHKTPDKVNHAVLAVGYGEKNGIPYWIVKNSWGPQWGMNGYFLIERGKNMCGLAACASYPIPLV

[3] = target: Cathepsin (S and K) (Homo sapiens) (UniProt P25774+P43235); assay: Relative binding to human cathepsins S and K; format: protein assay
[4] = Oral bioavailability in rat; format: ADME, organism-based; settings: in vivo
[5] = Total clearance in rats; format: ADME, organism-based; settings: rat, in vivo
[6] = Apparent permeability coefficient for apical to basolateral flux was determined by Madin-Darby canine kidney cell monolayer transport assay; format: ADME, cell-based, Canis lupus familiaris; settings: dog, MDCK
[7] = target: T2, Cathepsin (L and K) (Homo sapiens) (UniProt P43235+P07711); assay: (§1) Relative binding to human cathepsins L and K; format: protein assay
T2 sequence (P07711 whole entry, looked up, one chain of several): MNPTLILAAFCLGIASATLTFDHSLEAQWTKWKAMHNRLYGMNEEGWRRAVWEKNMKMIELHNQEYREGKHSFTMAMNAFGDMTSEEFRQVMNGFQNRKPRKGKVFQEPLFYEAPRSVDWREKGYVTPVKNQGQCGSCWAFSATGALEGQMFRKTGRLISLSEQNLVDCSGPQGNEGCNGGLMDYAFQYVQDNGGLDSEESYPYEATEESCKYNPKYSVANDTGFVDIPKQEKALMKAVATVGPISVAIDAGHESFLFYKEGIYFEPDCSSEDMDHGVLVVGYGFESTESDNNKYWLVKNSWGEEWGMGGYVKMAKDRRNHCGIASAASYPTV

[8] = target: T3, Pro-cathepsin H (Homo sapiens) (UniProt P09668); assay: Relative binding to human cathepsins H and K
T3 sequence (whole entry): T1 sequence (P09668 whole entry)

[9] = target: T4, Cathepsin K (Homo sapiens, UniProt P43235); assay: Inhibition of 10 uM Cbz-Phe-Arg-AMC binding to human cathepsin K in fluorescence assay
T4 sequence (P43235 whole entry): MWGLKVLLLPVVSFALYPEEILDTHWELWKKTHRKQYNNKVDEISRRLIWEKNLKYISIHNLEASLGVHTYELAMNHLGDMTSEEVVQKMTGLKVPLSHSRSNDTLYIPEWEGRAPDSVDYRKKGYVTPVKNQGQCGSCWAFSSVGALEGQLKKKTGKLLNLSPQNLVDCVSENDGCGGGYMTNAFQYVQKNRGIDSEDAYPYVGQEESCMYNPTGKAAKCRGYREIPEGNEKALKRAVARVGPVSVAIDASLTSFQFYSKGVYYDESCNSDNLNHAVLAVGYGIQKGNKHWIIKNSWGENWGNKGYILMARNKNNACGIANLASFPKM

[10] = target: T2, Cathepsin (L and K) (Homo sapiens); assay: as §1; format: protein assay; remark: listed apart in the source
[11] = target: Procathepsin L (Homo sapiens, UniProt P07711); assay: Inhibition of 5 uM Cbz-Phe-Arg-AMC human cathepsin L in fluorescence assay
Procathepsin L, sequence (P07711 whole entry): as the sequence (P07711 whole entry, looked up, one chain of several) above

[12] = Steady state volume of distribution in rats; format: ADME, organism-based; settings: rat, in vivo; read-out: Vss
[13] = Terminal half-life was determined in rats upon intravenous administration as a solution in 30% hydroxypropyl-beta-cyclodextrin, pH = 3.5; format: ADME, organism-based; settings: rat, in vivo
[14] = Equilibrium solubility in fasted state-simulated intestinal fluid was determined […]; format: ADME, Rattus norvegicus; settings: read-out: FS-SIF
[15] = target: Cathepsin S (Homo sapiens, UniProt P25774); assay: Inhibition of 10 uM Cbz-Val-Val-Arg-AMC binding to human cathepsin S in fluorescence assay
Cathepsin S, sequence (P25774 whole entry): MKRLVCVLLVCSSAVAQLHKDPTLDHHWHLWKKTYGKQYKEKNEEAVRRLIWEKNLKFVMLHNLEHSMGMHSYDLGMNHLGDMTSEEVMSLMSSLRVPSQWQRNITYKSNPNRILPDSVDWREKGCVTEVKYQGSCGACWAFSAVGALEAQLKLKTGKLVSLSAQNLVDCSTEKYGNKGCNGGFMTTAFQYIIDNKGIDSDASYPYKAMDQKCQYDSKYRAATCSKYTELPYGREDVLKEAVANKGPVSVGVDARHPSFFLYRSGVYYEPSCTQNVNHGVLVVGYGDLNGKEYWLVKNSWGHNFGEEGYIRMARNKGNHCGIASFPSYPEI

[16] = Terminal half-life was determined in rats upon intravenous administration as a solution in 40% hydroxypropyl-beta-cyclodextrin, pH = 5.1; format: ADME, organism-based; settings: rat, in vivo
[17] = target: Cathepsin (H and K) (Homo sapiens) (UniProt P09668+P43235); assay: Relative binding affinity for human cathepsins H and K; format: protein assay
[18] = Terminal half-life was determined in rats upon intravenous administration as a solution in 30% hydroxypropyl-beta-cyclodextrin, pH = 5.1; format: ADME, organism-based; settings: rat, in vivo

Structure (SMILES)	pIC50 [1]	pIC50 [2]	Ratio [3]	bioavailability [4] [%]	clearance [5] [mL/min/kg]	Papp A→B [6] [×10⁻⁶ cm/s]	Ratio [7]	Ratio [8]	pIC50 [9]	Ratio [10]	pIC50 [11]	Vd [12] [L/kg]	half-life [13] [h]	solubility thermodynamic [14] [µg/mL]	pIC50 [15]	half-life [16] [h]	Ratio [17]	half-life [18] [h]
CN(C)S(=O)(=O)NCCCC[C@H](NC(=O)OCC1(Cc2ccc(F)cc2)CCC1)C(=O)C(=O)NCc1cccnc1	< 5.30	< 5.30	3.2	18	9.6	6.9	> 120	> 120	7.40	> 120	< 5.30	0.42	4.5	30 (≈ 50.7 µM)	6.89	–	–	–
CCCC[C@H](NC(=O)OC(C)(C)Cc1ccccc1)C(=O)C(=O)N[C@H](C)c1ccccc1	–	–	–	–	–	–	–	–	6.20	–	–	–	–	–	–	–	–	–
C[C@@H](NC(=O)C(=O)[C@H](CCCCNC(=O)N1CCOCC1)NC(=O)OCC1(Cc2ccc(F)cc2)CCC1)c1ccccc1	< 5.30	< 5.30	2.1	38	43	47	–	–	7.89	–	6.17	4.2	–	90 (≈ 147 µM)	7.57	1.83	–	–
CCCC[C@H](NC(=O)OCC(C)(C)c1ccccc1)C(=O)C(=O)N[C@H](C)c1ccccc1	5.30	< 5.30	4.2	–	–	–	46	–	7.19	–	5.52	–	–	–	6.57	–	> 77	–
CNC(=O)NCCCC[C@H](NC(=O)OCC1(Cc2c(F)cccc2F)CCC1)C(=O)C(=O)N[C@H](C)c1ccccc1	–	–	–	15	33	14	–	–	7.62	–	–	1.6	–	20 (≈ 34.9 µM)	–	–	–	1.57
CCCC[C@H](NC(=O)OC(CC)(CC)Cc1ccccc1)C(=O)C(=O)N[C@H](C)c1ccccc1	–	–	–	–	–	–	–	–	6.82	–	–	–	–	–	–	–	–	–
CCCC[C@H](NC(=O)OCC1(CCCc2ccccc2)CCC1)C(=O)C(=O)N[C@H](C)c1ccccc1	< 5.70	< 5.70	1	–	–	–	> 120	> 120	7.77	76	5.89	–	–	–	7.77	–	–	–
CCCC[C@H](NC(=O)OCC1(CCc2ccccc2)CCC1)C(=O)C(=O)N[C@H](C)c1ccccc1	< 5.70	< 5.70	1.4	–	–	–	67	–	7.62	–	5.80	–	–	–	7.47	–	> 83	–
C[C@@H](NC(=O)C(=O)[C@H](CCCCNC(=O)N1CCOCC1)NC(=O)OCC1(Cc2ccncc2)CCC1)c1ccccc1	–	–	–	8.1	27	1.4	–	–	8.12	–	–	0.66	–	300 (≈ 505 µM)	–	1.23	–	–
CCCC[C@H](NC(=O)OCC(C)(C)Cc1ccccc1)C(=O)C(=O)N[C@H](C)c1ccccc1	< 5.30	< 5.30	1.5	–	–	–	92	> 380	7.89	–	5.92	–	–	–	7.70	–	> 380	–
CCCC[C@H](NC(=O)OCC1(Cc2ccc(F)cc2)CCC1)C(=O)C(=O)Nc1ccn[nH]1	< 6.30	< 6.30	6.3	31	45	15	> 600	> 600	9.08	390	6.48	–	–	150 (≈ 337 µM)	8.28	–	–	2
CCCC[C@H](NC(=O)OCC1(Cc2ccccc2)CCCC1)C(=O)C(=O)N[C@H](C)c1ccccc1	< 5.30	< 5.30	0.4	–	–	–	85	> 190	7.59	–	5.66	–	–	–	7.96	–	> 190	–
CCCC[C@H](NC(=O)OC1(Cc2ccccc2)CCCCC1)C(=O)C(=O)N[C@H](C)c1ccccc1	–	–	–	–	–	–	–	–	6.68	–	–	–	–	–	–	–	–	–
CCCC[C@H](NC(=O)OC1(Cc2ccccc2)CCC1)C(=O)C(=O)N[C@H](C)c1ccccc1	–	–	–	–	–	–	–	–	6.15	–	–	–	–	–	–	–	–	–
CCCC[C@H](NC(=O)OC1(Cc2ccccc2)CCCC1)C(=O)C(=O)N[C@H](C)c1ccccc1	< 4.92	< 4.92	17	–	–	–	120	–	7.60	–	5.52	–	–	–	6.37	–	> 480	–
CCCC[C@H](NC(=O)OCC1(Cc2ccccc2)CCC1)C(=O)C(=O)N[C@H](C)c1ccccc1	5.44	< 5.30	2.4	–	–	–	150	> 580	8.07	–	5.89	–	–	–	7.70	–	> 580	–
